In publication PMC7890489, “Study on pharmacological properties and cell absorption metabolism of novel daidzein napsylates” (Royal Society Open Science, 2021) one finds cell inhibition rate data, which are given here for one molecule.

For this series, the system named is vascular smooth muscle cells. As to the kind of experiment: Cytotoxicity by MTT assay. It is filed as cell-based. The settings on record: 300 ug/mL. An excerpt:
[…] 2) Please list the full name of “HAVSMCs”at the first time it appears.
We have listed the full name of “HAVSMCs” as its first appearance in the abstract of […]
[…] 3) Please number the carbon atoms of the compounds.
[…] 4) Line 19-36: The abstract can reflect all aspects of the work, but it is a bit long and too detailed. The authors should rephrase the abstract for a more concise […]
We have rewritten the section of abstract and tried to make it as concise as possible.
[…] 5) As far as I'm aware, daidzein as a biologically active natural product has been used for curing angiocardiopathy. But whether the synthesized daidzeinnapsylates have significant toxic side effects remain unknown. So, in vitro cytotoxicity […]
A549, HeLa cells) need be performed.
The cytotoxicity of DD4 and DD5 was determined by MTT assay in our lab before […]
the two compounds was less than 10% at the concentration of 300 ug/mL. It is considered that the compound is not toxic to vascular smooth muscle cells at this concentration. Therefore, the dosing concentrations of DD4 and DD5 were 171 and 120 ug/mL, respectively, to investigate the absorption and metabolism of drugs by […]
6)Please attach the 1H-NMR specturm of DD4 and DD5 in supporting information;
On the technique in general: Formazan colour is commonly taken as a measure of viable cells.

Take `CCOc1ccc2c(=O)c(-c3ccc(OS(=O)(=O)c4ccc5ccccc5c4)cc3)coc2c1` [DD5]: the cell inhibition rate result was “less than 10%”.
